Several values for one entry are separate records, joined by “and”; a condition that tells them apart may be missing. Identical values can stand only once.
How the values were obtained:
MDR1 (P-gp) = assay: MDCKII-MDR1 cell-based permeability assay; assay type: in vitro ADME; conditions: dog, MDCK-MDR1, pH 7.4
Method: (§1) page 30: ADME Methods Aqueous solubility assay: Solubility assays were conducted using a Biomek FX lab automation workstation (Beckman Coulter, Inc., Fullerton, CA) and μSOL Evolution software (pION Inc., Woburn, MA). In a 96-well microplate (Cat. No: 3363, Corning Incorporated, Salt Lake, UT), 10 μL of a 10 mM test compound stock in DMSO was added to 190 μL 1-propanol (Thermo Scientific, spectroscopy, Cat. No: 434360010, Fair Lawn, NJ) to create a reference stock plate. From this reference stock plate, 5 μL solutions were mixed with 70 μL 1-propanol and 75 μL Dulbecco's Phosphate Buffered Saline (DPBS, 1X, GibcoTM, Cat. No: 14190-144, Thermo Fisher Scientifics, Waltham, MA) to generate the reference plate (high sensitivity UV plate, Cat. No: 110286, pION Inc., Woburn, MA). In a 96-well storage plate (Cat. No: 201276-100, Agilent, Santa Clara, CA), 6 μL of a 10 mM test compound stock was added to 600 μL buffer, mixed, sealed, and incubated at room temperature for 18 hours. Following incubation, the suspension was filtered through a 96-well filter plate (PVDF, 0.2 μM, Cat. No: 110037, pION Inc., Woburn, MA). The filtrate (75 μL) was combined with 75 μL 1-propanol to create the sample plate. UV spectra of the reference and sample plates were then read, and calculations based on the area under the curve (AUC) of the UV spectra were performed using μSOL Evolution software. All compounds were tested in triplicate wells. MDCKII-MDR1 cell-based permeability assay: High-throughput […]1 permeability assay was performed in the Transwell® 0.4 μm polycarbonate membrane 96-well system with modified methods1,2, […]1 cells were maintained at 37 °C in a humidified incubator with an atmosphere of 5% CO2. The cells were cultured in 75 cm2 flasks with Eagle's Minimum Essential Medium (EMEM) containing 10% fetal bovine serum (FBS), 1% non-essential amino acids (NEAA), 100 units/mL of penicillin, and 100 μg/mL of streptomycin. The […]1 cells were seeded onto inserts at a density of 1×10^4 cells/insert separately. The medium in the wells was changed every other day, and the trans epithelial electrical resistance (TEER) value was measured page 31: using a REMS Autosampler (World Precision Instruments, Sarasota, […]1 cells were grown for 5 days to reach a consistent confluency level monitored by epithelial voltohmmeter to confirm the intactness of the confluent polarized monolayer. For transport experiments, each cultured monolayer on the 96-well plate was washed twice with a transport buffer (HBSS/25 mM […] The cell-based permeability assay was initiated by the addition of each compound solution (10 μmol/L) into inserts (apical side, A) or receivers (basolateral side, B). After incubated […] (if basal to apical permeability), and concentrations were assessed by UPLC/MS (Waters; Milford, MA). All compounds were tested in triplicates. The A→B (or B→A) apparent permeability coefficients (Papp) of each compound were calculated using the equation (3): […], where dQ/dt equals the flux of a drug across the monolayer, the parameters of A equals the surface area of total insert well, and C0 is the initial concentration of substrate in the donor compartment. The efflux ratio was determined by dividing the Papp in the B-A direction by the Papp in the A-B direction. […] NADPH regenerating agent solutions A and B (Corning GentestTM, Cat. No: 451220) were purchased from Discovery Labware (Woburn, MA). Mouse liver microsomes (CD-1, pooled, GibcoTM, Cat. No: MSMCPL) were obtained from Thermo Fisher Scientific (Fredrick, MD). Pooled human liver microsomes (mixed gender, Cat. No: E0630) were purchased from XenoTech (Lenexa, KS). Stock solutions of test compounds were prepared at 10 mM in DMSO. Sample preparation for microsomal stability was modified from Di's publications3,4. […] and 4 hours) by Labcyte Echo 650 acoustic dispenser (Beckman Coulter Life Sciences, Indianapolis, IN). All compounds were tested in triplicate per time point. […]

MDCKII-MDR1 cells = assay: MDCKII-MDR1 cell-based permeability assay; assay type: in vitro ADME
Method: as §1

| Compound | Papp A→B at 1 h, 10 μmol/L (MDR1 (P-gp); apical to basolateral, read-out: MDCK-MDR1 AB) | Papp B→A at 1 h, 10 μmol/L (MDR1 (P-gp); basolateral to apical, read-out: MDCK-MDR1 BA) | Papp (*10^6 cm/s), A2B, single replicate (MDCKII-MDR1 cells; A2B) | Papp (nm/s), A2B, single replicate (MDCKII-MDR1 cells; A2B) | AVG Papp A 2 B (MDCKII-MDR1 cells; A2B, average of 3) | Papp (*10^6 cm/s), B2A, single replicate (MDCKII-MDR1 cells; B2A) | Papp (nm/s), B2A, single replicate (MDCKII-MDR1 cells; B2A) | Efflux Ratio (MDCKII-MDR1 cells; B2A / A2B) | AVG Papp B 2 A (MDCKII-MDR1 cells; B2A, average of 3) |
| --- | --- | --- | --- | --- | --- | --- | --- | --- | --- |
| O=C1CCC(N2Cc3cc(Nc4noc5ccccc45)ccc3C2=O)C(=O)N1 (stereo not drawn) [SJ3149] | 27.7 ×10⁻⁶ cm/s | 36.5 ×10⁻⁶ cm/s |  |  |  |  |  |  |  |
| O=C1CCC(N2Cc3cc(Nc4noc5ccccc45)ccc3C2=O)C(=O)N1 (stereo not drawn) [SJ001043149-1] |  |  | 35.9761 *10^6 cm/s and 11.2244 *10^6 cm/s and 35.8135 *10^6 cm/s | 359.761 nm/s and 112.244 nm/s and 358.135 nm/s | 27.6713 ×10⁻⁶ cm/s | 44.7992 *10^6 cm/s and 31.6544 *10^6 cm/s and 32.9997 *10^6 cm/s | 447.992 nm/s and 316.544 nm/s and 329.997 nm/s | 1.318 | 36.4845 ×10⁻⁶ cm/s |
